What was measured:
Experiment in all cases: relative viability (nuclei count vs DMSO), 5 days (fraction); higher = more cells survive
AGI-6780 + Luminespib = compound: O=C(Nc1cccc(C(F)(F)F)c1)Nc1cc(S(=O)(=O)NC2CC2)ccc1-c1ccsc1 [AGI-6780] + CCNC(=O)c1noc(-c2cc(C(C)C)c(O)cc2O)c1-c1ccc(CN2CCOCC2)cc1 [Luminespib] (partner 0.01 µM)
How it was run: (§1)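 After 5 days of treatment, lung cancer cells in 1536-well plates were fixed and stained in a single step (final 0.05% Triton X-100, 1% formaldehyde, 1 ug/ml Hoechst) and their nuclei counted on 4× images. Treatment had been applied by pin tool the day after seeding as one drug alone or as a fixed anchor-drug dose with five library-drug doses (not always all listed) in √10 steps. Relative viability is the nuclei count of treated wells divided by that of vehicle wells, and values are medians of duplicate plates.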

AGI-6780 + Lapatinib = compound: O=C(Nc1cccc(C(F)(F)F)c1)Nc1cc(S(=O)(=O)NC2CC2)ccc1-c1ccsc1 [AGI-6780] + CS(=O)(=O)CCNCc1ccc(-c2ccc3ncnc(Nc4ccc(OCc5cccc(F)c5)c(Cl)c4)c3c2)o1 [Lapatinib] (partner 2 µM)
How it was run: as §1

AGI-6780 + Decitabine = compound: O=C(Nc1cccc(C(F)(F)F)c1)Nc1cc(S(=O)(=O)NC2CC2)ccc1-c1ccsc1 [AGI-6780] + Nc1ncn([C@H]2C[C@H](O)[C@@H](CO)O2)c(=O)n1 [Decitabine] (partner 2 µM)
How it was run: as §1

AGI-6780 + Olaparib = compound: O=C(Nc1cccc(C(F)(F)F)c1)Nc1cc(S(=O)(=O)NC2CC2)ccc1-c1ccsc1 [AGI-6780] + O=C(c1cc(Cc2n[nH]c(=O)c3ccccc23)ccc1F)N1CCN(C(=O)C2CC2)CC1 [Olaparib] (partner 8 µM)
How it was run: as §1

Cell Line | relative viability (AGI-6780 + Luminespib; first compound 0.08 µM) | relative viability (AGI-6780 + Luminespib; first compound 0.253 µM) | relative viability (AGI-6780 + Luminespib; first compound 0.8 µM) | relative viability (AGI-6780 + Luminespib; first compound 2.53 µM) | relative viability (AGI-6780 + Luminespib; first compound 8 µM) | relative viability (AGI-6780 + Lapatinib; first compound 0.08 µM) | relative viability (AGI-6780 + Lapatinib; first compound 0.253 µM) | relative viability (AGI-6780 + Lapatinib; first compound 0.8 µM) | relative viability (AGI-6780 + Lapatinib; first compound 2.53 µM) | relative viability (AGI-6780 + Lapatinib; first compound 8 µM) | relative viability (AGI-6780 + Decitabine; first compound 0.08 µM) | relative viability (AGI-6780 + Decitabine; first compound 0.253 µM) | relative viability (AGI-6780 + Decitabine; first compound 0.8 µM) | relative viability (AGI-6780 + Decitabine; first compound 2.53 µM) | relative viability (AGI-6780 + Decitabine; first compound 8 µM) | relative viability (AGI-6780 + Olaparib; first compound 0.08 µM) | relative viability (AGI-6780 + Olaparib; first compound 0.253 µM) | relative viability (AGI-6780 + Olaparib; first compound 0.8 µM) | relative viability (AGI-6780 + Olaparib; first compound 2.53 µM) | relative viability (AGI-6780 + Olaparib; first compound 8 µM)
201T | 1.09 | 1.04 | 1.06 | 0.988 | 1.08 | 1.03 | 1.01 | 1.02 | 1.01 | 1.02 | 0.88 | 0.841 | 0.861 | 0.87 | 0.878 | 0.869 | 0.837 | 0.84 | 0.871 | 0.775
PC-3 [JPC-3] | 0.59 | 0.71 | 0.727 | 0.629 | 0.67 | 0.467 | 0.513 | 0.451 | 0.416 | 0.48 | – | 0.797 | 0.868 | 0.802 | 0.775 | – | 1.09 | 1.11 | 1.18 | 0.962
NCI-H1355 | 0.75 | 0.791 | 0.686 | 0.408 | 0.624 | 1.03 | 1.04 | 0.944 | 0.685 | 0.96 | 0.353 | 0.419 | 0.357 | 0.34 | 0.355 | 0.838 | 0.791 | 0.773 | 0.65 | 0.71
RERF-LC-KJ | 1.25 | 1.17 | 1.33 | 1.16 | 1.17 | 0.828 | 0.923 | 0.788 | 0.675 | 0.859 | 0.634 | 0.698 | 0.829 | 0.644 | 0.611 | 0.928 | 0.892 | 0.943 | 0.906 | 0.878
LK-2 | 0.189 | 0.169 | 0.183 | – | 0.202 | 0.867 | 0.951 | 1.14 | – | 0.958 | 0.282 | 0.402 | 0.322 | – | 0.477 | 0.643 | 0.778 | 0.945 | – | 0.755
NCI-H1944 | 0.814 | 0.711 | 0.709 | – | 0.768 | 0.928 | 0.861 | 0.784 | 0.544 | 0.92 | 0.448 | 0.445 | 0.399 | – | 0.425 | 0.464 | 0.412 | 0.448 | – | 0.395
HCC-827 | 0.584 | 0.586 | 0.707 | 0.467 | 0.454 | 0.201 | 0.215 | 0.197 | 0.191 | 0.179 | 0.331 | 0.314 | 0.39 | 0.29 | 0.336 | 0.73 | 0.659 | 0.661 | 0.53 | 0.651
NCI-H3122 | 0.0953 | 0.0902 | 0.113 | 0.0851 | 0.0997 | 1.02 | 0.987 | 1.09 | 1.02 | 1.08 | 0.447 | 0.411 | 0.42 | 0.331 | 0.498 | 0.608 | 0.626 | 0.725 | 0.706 | 0.649
UMC-11 | 1.16 | 1 | 1.22 | – | 1.11 | 1.03 | 0.92 | 1.09 | – | 1.16 | 0.394 | 0.335 | 0.7 | – | 0.678 | 0.393 | 0.38 | 0.4 | – | 0.434
EPLC-272H | – | 0.359 | 0.267 | 0.166 | 0.244 | 0.921 | 0.949 | 0.881 | 0.747 | 1.11 | 0.405 | 0.348 | 0.359 | 0.372 | 0.374 | 0.748 | 0.827 | 0.633 | 0.732 | 0.942
NCI-H1651 | 0.809 | 0.893 | 0.919 | 0.744 | 0.804 | 0.83 | 0.911 | 0.959 | 0.805 | 1.04 | 0.557 | 0.627 | 0.619 | 0.535 | 0.653 | 0.187 | 0.181 | 0.169 | 0.169 | 0.18
NCI-H650 | 0.673 | 0.874 | 0.865 | 0.793 | 0.946 | 0.922 | 1.07 | 1.17 | 0.859 | 1.05 | 0.288 | 0.296 | 0.377 | 0.33 | 0.296 | 0.349 | 0.413 | 0.437 | 0.303 | 0.388
LOU-NH91 | 0.411 | 0.337 | 0.436 | 0.328 | 0.305 | 0.773 | 0.836 | 0.78 | 0.587 | 0.737 | 0.834 | 0.811 | 0.803 | 0.826 | 0.802 | 0.942 | 0.887 | 0.94 | 0.912 | 0.89
HARA | 0.787 | 0.594 | 0.177 | 0.944 | 0.93 | 0.872 | 0.825 | 0.613 | 0.681 | 0.707 | 0.481 | 0.446 | 0.513 | 0.402 | 0.61 | 0.847 | 0.945 | 0.311 | 0.893 | 0.83
NCI-H596 | 1 | 0.995 | 0.982 | – | 1.09 | 0.841 | 1.13 | 1.05 | 0.886 | 1.08 | 1.65 | 0.981 | 0.991 | 0.73 | 0.924 | 0.749 | 0.765 | 0.704 | 0.625 | 0.791
SK-MES-1 | 0.716 | 0.714 | 0.798 | 0.677 | 0.801 | 0.482 | 0.524 | 0.441 | 0.407 | 0.427 | 0.364 | 0.382 | 0.462 | 0.294 | 0.377 | 0.738 | 0.667 | 0.628 | 0.643 | 0.592
A-427 | 0.943 | 0.717 | 0.882 | 0.802 | 0.97 | 1.09 | 0.997 | 1.01 | 0.945 | 0.929 | – | 0.538 | 0.573 | 0.508 | 0.527 | – | 0.712 | 0.738 | 0.649 | 0.732

From the supplement of paper PMC10307832
